Values of other authors as cited in patent US20230172916A1, “COMPOSITION COMPRISING AT LEAST ONE PROTOBERBERINE ALKALOID AND METHOD FOR MANUFACTURING SAME” (ELEONOR, priority 2020, published 2023).
Where two headings read alike, the source gives them in different places.

Experiments:
[1] = scientific studies report; species not stated
[2] = laboratory rats subjected to experiments

bioavailability [1]: less than 5%
bioavailability [2]: about 0.68%
Compound: COc1ccc2cc3[n+](cc2c1OC)CCc1cc2c(cc1-3)OCO2 [berberine, 2,3-methylenedioxy-9,10-dimethoxy-protoberberine]
